The record followed here is patent US20190322632A1, “HRI ACTIVATORS USEFUL FOR THE TREATMENT OF CARDIOMETABOLIC DISEASES” (UNIVERSITAT DE BARCELONA, priority 2016, published 2019).

One experiment deals with Akt. The experiment can be described thus: Insulin signalling in hepatocytes (insulin-stimulated Akt phosphorylation, immunoblot). In kind it is cell-based, human. The settings on record: Huh-7 cells, 24 h, 0.75 mmol/L palmitate plus 10 μmol/L compound, 100 nmol/L insulin last 10 min; FIG. 6. The procedure: (B). When indicated (+), cells were incubated with 100 nmol/L insulin (I) for the last 10 min. Data are presented as the mean±SD (n=4 per group). ***p<0.001 and *p<0.05 vs. control cells not exposed to insulin. ^###p<0.001 and ^##p<0.01 vs. insulin-stimulated control cells. ^554 \\p<0.001 vs. insulin-stimulated cells incubated with palmitate. Ins: insulin.
Inventors examined the insulin signalling pathway by measuring insulin-stimulated Akt phosphorylation. Huh-7 cells were incubated for 24 h with BSA (Control, CT), 0.75 mmol/L palmitate (Pal) conjugated with BSA, or 0.75 mmol/L palmitate plus 10 μmol/L BTdCPU (Pal+BTdCPU). Immunoblot analyses of total and phosphorylated Akt was carried out.
In general terms: In western blotting, separated proteins are transferred to a membrane and probed.

The test system of experiment [1] is mice fed a high-fat diet (HFD). The experiment can be described thus: Glucose tolerance test in mice fed a high-fat diet. In kind it is in vivo. The settings on record: HFD three weeks, 70 mg kg^−1 day^−1 i.p. daily for the last week, FIG. 7. From the text:
Data are presented as the mean±SD (n=6 per group). *p<0.05 vs. mice fed a standard diet (CT). #p<0.05 vs. mice fed a HFD. G: glucose.
T2DM is characterized by glucose intolerance, which is contributed to by peripheral (muscle, fat, and liver) insulin resistance as well as islet […] dysfunction (cf. Andrikopoulos S. et al., “Evaluating the glucose tolerance test in mice”, Am. J. Physiol. Endocrinol. Metab., 2008, vol. 295, pp. E1323-32). The glucose tolerance test (GTT) is used in clinical practice and research to identify individuals with impaired glucose tolerance by assessing the disposal of a glucose load. It is important to acknowledge that the GTT is the only means of identifying impaired glucose tolerance, which is considered a prediabetic state (cf. Andrikopoulos S. et al., ibid). The standard presentation of results from GTTs is a description of blood glucose levels over time after the glucose administration. Generally, a time course of absolute glucose levels is presented. When using diabetic or insulin-resistant models (such as the HFD-fed mouse), a time course of absolute glucose levels should still be presented along with a calculation of the AUC above baseline glucose. In this assay, the effect of the BTdCPU compound on glucose tolerance in mice fed a high-fat diet (HFD) was examined. […]

The subject of a further experiment is human Huh-7 hepatocytes. The experiment can be described thus: Palmitate-induced triglyceride accumulation in hepatocytes (Oil Red O staining). In kind it is cell-based. The conditions noted are these: Huh-7 cells, 24 h, 0.75 mmol/L palmitate plus 10 μmol/L compound; FIG. 5. The method, then:
To examine the effects of HRI activators on triglyceride accumulation and insulin signaling in hepatocytes, the N,N′-diarylurea BTdCPU was used. HRI is a kinase that phosphorylates eIF2α at its Ser 51 residue to execute protein synthesis regulation and thereby HRI activators cause the phosphorylation of eIF2α as previously described (Chen T. et al., ibid). First, the effect of BTdCPU on human Huh-7 hepatocytes exposed to the saturated fatty acid palmitate was explored. Huh-7 cells were incubated for 24 h with BSA (Control, CT), 0.75 mmol/L palmitate (Pal) conjugated with BSA or 0.75 mmol/L palmitate plus 10 μmol/L BTdCPU (Pal+BTdCPU). Then, they were stained with Oil Red O that allows selective detection of neutral lipids (primarily triglyceride and cholesterol esters) within Huh-7 cells.

A further experiment has as its system mice fed a HFD. The experiment can be described thus: HFD-induced steatosis in mice (ORO and H&E liver staining, hepatic triglyceride levels). In kind it is in vivo. The conditions noted are these: HFD three weeks, 70 mg kg^−1 day^−1 i.p. daily for the last week. The source says: FIG. 8. (A) Oil Red O and eosin-hematoxylin (H&E) staining of livers of mice fed a standard chow (CT), a HFD for three weeks (HFD) or a HFD for three weeks plus BTdCPU during the last week (HFD+BTdCPU). (B) Liver triglyceride levels. Data are presented as the mean±SD (n=6 per group). *p<0.05 vs. mice fed a standard diet (CT). ^#p<0.05 vs. mice fed a HFD. G: glucose. TG: triglyceride.
Inventors examined whether the treatment with an HRI activator (BTdCPU) prevented the development of steatosis induced by a HFD. Histological analysis of a liver biopsy remains the gold standard for assessing the degree of steatosis. ORO staining and eosin-hematoxylin (H&E) staining of liver sections were performed. Mice fed a standard chow and half of the mice fed the HFD received one daily i.p. administration of DMSO (vehicle) for the last week. The rest of the mice fed the HFD received one daily i.p. administration of BTdCPU (70 mg kg^−1 day^−1) for the last week. […] Finally, hepatic lipids were extracted and hepatic triglyceride levels were assessed by using a commercially available kit (TR0100, Sigma). […] Overall, these findings indicate that HRI activation prevents HFD-induced steatosis.

The subject of another experiment is FGF21. The experiment can be described thus: FGF21 expression in hepatocytes (quantitative real-time RT-PCR). The conditions noted are these: Huh-7 hepatocytes, 24 h, 10 μM; FIG. 9. In kind it is cell-based, human. The procedure:
Human Huh-7 hepatocytes were incubated for 24 h in the absence (Control, CT) or in the presence of compounds (10 μM). Assessment by quantitative real-time RT-PCR of FGF21. Data are presented as the mean±SD (n=4 per group). ***p<0.001 and **p<0.01 vs CT. ^###p<0.001, ^##p<0.01 and ^#p<0.05 vs BTCtFPU. ^††p<0.01 and ^†p<0.05 vs BTdCPU. BTCtFPU=1-(benzo[d][1,2,3]thiadiazol-6-yl)-3-(4-chloro-3-(trifluoromethyl)phenyl)urea (compound (3) in Chen T. et al., ibid.).
On the technique in general: In qPCR the cycle at which signal appears reflects the starting amount.

Take `O=C(Nc1ccc(Cl)c(Cl)c1)Nc1ccc2nnsc2c1` [BTdCPU, 1-(benzo[d][1,2,3]thiadiazol-6-yl)-3-(3,4-dichlorophenyl)urea]: the “insulin-stimulated Akt phosphorylation” value with Akt is “partially restored the reduction in insulin-stimulated Akt phosphorylation caused by palmitate”. For the same molecule, in experiment [1], the “glucose tolerance test AUC above baseline glucose” value was “prevented the increase in the AUC above baseline glucose”. Further, the “palmitate-induced triglyceride accumulation (Oil Red O staining)” value with human Huh-7 hepatocytes is reported as “accumulation was prevented”. Besides, in the experiment on mice fed a HFD (FIG. 8A), the “hepatic steatosis (ORO and H&E staining)” value is “hepatic steatosis was reversed”. Also, the hepatic triglyceride levels entry in the experiment with mice fed a HFD (FIG. 8B) is reported as “increase was completely blunted”. The “FGF21 expression compared with BTCtFPU” value in the experiment with FGF21 is on record as “significant higher increase than compound BTCtFPU”.
